Test results taken from patent publication US8101211B2, “Compositions for retarding skin aging” (Kabushiki Kaisha Yakult Honsha, priority 2000, dated 2012).
Converted amounts (≈) assume the structure as drawn.

Columns and labels:
[1] = tested on: B16 mouse melanoma cells (B16-F1 cells, ATCC No. CRL-6323); experiment: Melanin formation-inhibiting test (extracellular melanin, 96-well plate method); assay type: cell-based; conditions: for IC50: Mus musculus, extracellular melanin, B16-F1 cells, read-out: Melanin formation inhibition IC50; for Melanin formation inhibition, % Inhibition at 0.001%: test concentration 0.001%, 3 days, theophylline 0.5 mM
Experimental: Measurements were made by the 96-well plate method using […] mouse melanoma cells (B16-F1 cells, ATCC No. CRL-6323) purchased from Dainippon Pharmaceutical. The cells (1×10^4) were sowed into each well and cultured in 10% FCS- and 1% antibiotic-containing D-MEM for 24 hours (37° C., 5% CO2), the medium was then replaced with D-MEM supplemented with the test substance and theophylline (0.5 mM), and cultivation was further continued for 3 days. The solvent (ethanol) for the test substance was added to the medium in a final concentration of 1%. An equal volume of HEPES buffer (pH 6.8)/ethanol (9:1) was added to the culture supernatant obtained by centrifugation and the absorbance at 475 nm to 660 nm was measured on the microplate reader EL-340 (BIO-TEK INSTRUMENT), and the melanin formation-inhibiting activity was evaluated in terms of the amount of extracellular melanin.

[2] = DPPH radical-capturing activity; conditions: concentration at which DPPH radical scavenging is 50%
Excerpt: [table] […] The extent of activity was expressed in terms of DPPH Radial Scavenging (%) calculated according to the following formula: DPPH Radial Scavenging (%)=(A−B)/A×100 where A: absorbance without addition of sample, B: absorbance with addition of sample. […]

Row | Structure (SMILES) | IC50 [1] [µg/mL] | Melanin formation inhibition, % Inhibition at 0.001% [1] [%] | DPPH radical scavenging IC50 [2] [µg/mL]
1 | OC[C@H]1O[C@@H](Oc2ccc(O)cc2)[C@H](O)[C@@H](O)[C@@H]1O [Arbutin] | 12.1 (≈ 44.4 µM) | 32.4 | 
2 | O=C1O[C@H]([C@@H](O)CO)C(O)=C1O [Ascorbic acid] |  |  | 4.1
3 | N[C@@H](CCC(=O)N[C@@H](CS)C(=O)NCC(=O)O)C(=O)O [Glutathione] |  |  | 13.5
4 | O=c1cc(CO)occ1O [Kojic acid] | 12.9 (≈ 90.8 µM) | 25.7 | 
